Source: the NIST ThermoML archive (doi:10.1016/j.jct.2004.06.004)

What was measured:
[1] = Liquid
[2] = xn = mol fraction of the nth substance listed; conditions: 101.3 kPa, Liquid

NCCO [2-aminoethan-1-ol]
Conditions	mass density [kg/m3]
[1], 293.15 K, 101.33 kPa, Pycnometric method	1012.1

[1], 101.3 kPa
Conditions	viscosity [mPa·s]
298.15 K	18.91
303.15 K	14.71
308.15 K	11.82
313.15 K	9.27
318.15 K	7.52
323.15 K	6.21

NCCO [2-aminoethan-1-ol] + O
viscosity [mPa·s], [2]
Conditions	x1 = 0.03219	x1 = 0.06969	x1 = 0.1138	x1 = 0.1666	x1 = 0.2306	x1 = 0.3102	x1 = 0.4116	x1 = 0.5452	x1 = 0.7296	x1 = 1
303.15 K	1.081	1.448	2.041	2.93	4.28	6.27	9.25	12.42	14.56	14.71
308.15 K	0.962	1.282	1.784	2.513	3.61	5.23	7.3	9.75	11.62	11.82
313.15 K	0.865	1.149	1.536	2.085	2.932	4.23	5.88	7.82	9.26	9.27
318.15 K	0.779	1.01	1.345	1.786	2.472	3.51	4.92	6.53	7.57	7.52
323.15 K	0.703	0.907	1.173	1.553	2.125	2.925	3.95	5.24	6.06	6.21

CCOCCO [2-ethoxyethan-1-ol]
[1]
Conditions	mass density, 293.15 K [kg/m3]	viscosity, 293.15 K [mPa·s]	viscosity, 303.15 K [mPa·s]	viscosity, 308.15 K [mPa·s]	viscosity, 313.15 K [mPa·s]	viscosity, 318.15 K [mPa·s]	viscosity, 323.15 K [mPa·s]
101.3 kPa	–	2.077	1.612	1.413	1.24	1.166	1.026
101.33 kPa	929.7	–	–	–	–	–	–

CCOCCO [2-ethoxyethan-1-ol] + O
viscosity [mPa·s], [2]
Conditions	x1 = 0.0201	x1 = 0.04419	x1 = 0.07339	x1 = 0.1098	x1 = 0.1561	x1 = 0.2172	x1 = 0.3015	x1 = 0.4252	x1 = 0.6247	x1 = 1
303.15 K	1.046	1.384	1.709	2.135	2.516	2.711	2.858	2.747	2.266	1.612
308.15 K	0.924	1.177	1.472	1.769	2.057	2.248	2.329	2.2	1.951	1.413
313.15 K	0.814	1.008	1.238	1.499	1.711	1.864	1.947	1.867	1.676	1.24
318.15 K	0.71	0.898	1.108	1.322	1.521	1.663	1.723	1.632	1.516	1.166
323.15 K	0.651	0.791	0.958	1.164	1.339	1.45	1.55	1.486	1.361	1.026

COCCO [2-methoxyethan-1-ol]
[1]
Conditions	mass density, 293.15 K [kg/m3]	viscosity, 293.15 K [mPa·s]	viscosity, 303.15 K [mPa·s]	viscosity, 308.15 K [mPa·s]	viscosity, 313.15 K [mPa·s]	viscosity, 318.15 K [mPa·s]	viscosity, 323.15 K [mPa·s]
101.3 kPa	–	1.991	1.375	1.126	0.942	0.832	0.757
101.33 kPa	965.2	–	–	–	–	–	–

Conditions	viscosity [mPa·s]
[1], 293.15 K, 101.33 kPa, Capillary tube (Ostwald / Ubbelohde) method	1.991

COCCO [2-methoxyethan-1-ol] + O
viscosity [mPa·s], [2]
Conditions	x1 = 0.0247	x1 = 0.05399	x1 = 0.08909	x1 = 0.1321	x1 = 0.1858	x1 = 0.2551	x1 = 0.3475	x1 = 0.4773	x1 = 0.6726	x1 = 1
303.15 K	1.08	1.353	1.656	1.979	2.247	2.396	2.418	2.296	1.825	1.375
308.15 K	0.953	1.165	1.459	1.652	1.888	2.016	2.051	1.941	1.528	1.126
313.15 K	0.811	0.985	1.205	1.367	1.529	1.668	1.733	1.6	1.323	0.942
318.15 K	0.735	0.885	1.031	1.176	1.368	1.457	1.53	1.41	1.133	0.832
323.15 K	0.667	0.796	0.926	1.056	1.226	1.322	1.381	1.258	1.05	0.757

O [water] + CCOCCO
[2], x2 = 0
Conditions	viscosity [mPa·s]
303.15 K	0.7975
308.15 K	0.7195
313.15 K	0.6532
318.15 K	0.5963
323.15 K	0.5471

O [water] + COCCO
[2], x2 = 0
Conditions	viscosity [mPa·s]
303.15 K	0.7975
308.15 K	0.7195
313.15 K	0.6532
318.15 K	0.5963
323.15 K	0.5471

O [water] + NCCO
[2], x2 = 0
Conditions	viscosity [mPa·s]
303.15 K	0.7975
308.15 K	0.7195
313.15 K	0.6532
318.15 K	0.5963
323.15 K	0.5471
